Literature values as cited in patent US8728489B2, “Immunotherapy for chronic hepatitis C virus infection” (priority 2008, dated 2014).

What was measured:
[1] = in vivo

**Q.** Which results are given for NC(=O)c1ncn([C@@H]2O[C@H](CO)[C@@H](O)[C@H]2O)n1 [Ribavirin, 1-(beta)-D-ribofuranosyl-1H-1,2,4-triazole-3-carboxamide]?
**A.** solubility in anhydrous alcohol: slightly soluble; solubility in water: freely soluble; patients with hemolytic anemia [1]: 20-30%
